From the supplement of paper PMC11061612 come the findings set out here.

Common to all, as to test: Bliss excess, mean over the matrix (fraction); higher = more synergy
Assay [1] deals with BHT-101 (Thyroid Gland Carcinoma). The gist of the method:
(§1)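 After 24 hours at 37°C and 5% CO2 in 1536-well plates, cells in DMEM/F12 or RPMI plus 10% FBS received two-drug dose matrices for 72 hours. Viability came from CellTiter-Glo 2.0 luminescence and was scaled as inhibition, anchored at 0 by vehicle wells and at 1 by blank wells. Combination Emax is taken as the second-highest inhibition in the matrix, and Bliss excess as the observed combination effect less EA + EB − EA·EB, with EA and EB the single-agent effects.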

The test system of assay [2] is C-33-A (Cervical Carcinoma). The essentials:
as §1

Assay [3] deals with CPC-N (Small Cell Lung Carcinoma). The gist of the method: as §1
The test system of another assay is ES6 (Ewing's Sarcoma). The gist of the method:
as §1

The test system of the next assay is KALS-1 (Glioblastoma). The essentials: as §1
For assay [4], the system named is LS-1034 (Colorectal Carcinoma). The essentials:
as §1

The subject of assay [5] is MDA-MB-415 (Breast Carcinoma). The essentials: as §1
For assay [6], the system named is MM1S (Plasma Cell Myeloma). The essentials:
as §1

Assay [7] relates to MOLP-8 (Plasma Cell Myeloma). The gist of the method: as §1
In assay [8] the test system is MS-1 (Small Cell Lung Carcinoma). The gist of the method:
as §1

The test system of assay [9] is NCI-H1876 (Small Cell Lung Carcinoma). The gist of the method: as §1
Assay [10] has as its system NCI-H1963 (Small Cell Lung Carcinoma). The gist of the method: as §1
Assay [11] deals with NCI-H3118 (Head and Neck Carcinoma). The gist of the method:
as §1

For assay [12], the system named is OVCAR-3 (Ovarian Carcinoma). The essentials:
as §1

Assay [13] deals with PA-TU-8988T (Pancreatic Carcinoma). The gist of the method:
as §1

Assay [14] has as its system Raji (Burkitt's Lymphoma). The gist of the method: as §1
In assay [15] the test system is SNU-C2B (Colorectal Carcinoma). The essentials: as §1
Assay [16] deals with T84 (Colorectal Carcinoma). The essentials:
as §1

Assay [17] concerns TUR (Acute Myeloid Leukemia). The gist of the method: as §1
A further assay deals with UACC-257 (Melanoma). The gist of the method:
as §1

Regarding `CN(CCO)CC[C@H](CSc1ccccc1)Nc1ccc(S(=O)(=O)NC(=O)c2ccc(N3CCC([C@@H](O)c4ccccc4-c4ccc(Cl)cc4)CC3)cc2)cc1S(=O)(=O)C(F)(F)F` [AZD4320] + CCN(CCO)CCCOc1ccc2c(Nc3cc(CC(=O)Nc4cccc(F)c4)[nH]n3)ncnc2c1 [AZD2811] (first compound max 1 µM, 7x7, partner max 1 µM), the Bliss excess was -0.0112 in [1]; -0.0283 in assay [2]; 0.0092 in assay [3]; -0.0229 with ES6 (Ewing's Sarcoma); 0.0804 with KALS-1 (Glioblastoma); -0.0337 in assay [4]. The Bliss excess in assay [5] stood at 0.0756; in assay [6] it was 0.118; in assay [7], 0.0283; in assay [8], 0.0349; in assay [9], 0.0935; in assay [10], 0.0054. In addition, the Bliss excess in [11] is 0.002; in assay [12] it was -0.005; in [13] it was 0.0239; in assay [14] it was 0.0111; in [15], -0.0031; in assay [16] it was -0.0305. The Bliss excess was 0.0393 in assay [17] and -0.0022 with UACC-257 (Melanoma).
`CC(=O)c1c(C)c2cnc(Nc3ccc(N4CCNCC4)cn3)nc2n(C2CCCC2)c1=O` [Palbociclib] + Cn1cnc2c(F)c(Nc3ccc(Br)cc3Cl)c(C(=O)NOCCO)cc21 [Selumetinib] (first compound max 10 µM, 7x7, partner max 10 µM): the Bliss excess is -0.0073 in [1]; 0.0164 in assay [2]; -0.0271 in assay [3]; 0.0235 with ES6 (Ewing's Sarcoma); -0.0353 with KALS-1 (Glioblastoma); 0.0354 in [4]. Also, the Bliss excess was -0.0588 in assay [5]; -0.0061 in assay [6]; 0.0926 in [7]; -0.0601 in [8]; 0.0495 in [9]; 0.005 in assay [10]. Besides, the Bliss excess in assay [11] was 0.0418; in assay [12], -0.0361; in assay [13], 0.0449; in assay [14] it was -0.0103; in [15], 0.0282; in assay [16] it was -0.0476. Besides, the Bliss excess in [17] is -0.0069; in the assay on UACC-257 (Melanoma), -0.0087.
As for `CCN(CCO)CCCOc1ccc2c(Nc3cc(CC(=O)Nc4cccc(F)c4)[nH]n3)ncnc2c1` [AZD2811] + C=CCn1c(=O)c2cnc(Nc3ccc(N4CCN(C)CC4)cc3)nc2n1-c1cccc(C(C)(C)O)n1 [AZD1775] (first compound max 1 µM, partner max 1 µM), the Bliss excess in [1] was 0.0043; in [2], 0.0111; in assay [3] it was -0.0239; with ES6 (Ewing's Sarcoma), -0.0792; with KALS-1 (Glioblastoma), -0.0307; in assay [4] it was 0.0033. Also, the Bliss excess in assay [5] is -0.0152; in assay [6], 0.0048; in assay [7] it was 0.0185; in assay [8] it was -0.0205; in [9] it was -0.0318; in assay [10], -0.0448. The Bliss excess was -0.0798 in assay [11]; -0.0154 in assay [12]; 0.0311 in assay [13]; 0.0278 in [14]; -0.0602 in [15]; -0.0627 in [16]. In addition, the Bliss excess in [17] was 0.117; in the assay on UACC-257 (Melanoma) it was -0.032.
Turning to `Cc1c2c(nn1C)CSCc1cc(n(C)n1)CSc1cc(c3ccccc3c1)OCCCc1c(C(=O)O)n(C)c3c-2c(Cl)ccc13` [AZD5991] + C=CCn1c(=O)c2cnc(Nc3ccc(N4CCN(C)CC4)cc3)nc2n1-c1cccc(C(C)(C)O)n1 [AZD1775] (first compound max 1 µM, partner max 1 µM), the Bliss excess in [1] was 0.0811; in [2] it was -0.0556; in [3] it was -0.0453; in the assay with ES6 (Ewing's Sarcoma), 0.0814; in the assay on KALS-1 (Glioblastoma), -0.0169; in assay [4], -0.098. Besides, the Bliss excess is 0.0011 in assay [5]; 0.0547 in assay [6]; -0.0041 in assay [7]; -0.0462 in assay [8]; -0.0292 in assay [9]; 0.0006 in assay [10]. The Bliss excess is -0.0361 in [11]; 0.031 in [12]; -0.0321 in [13]; -0.013 in [14]; 0.0194 in assay [15]; -0.0287 in assay [16]. The Bliss excess in assay [17] amounted to 0.0189; with UACC-257 (Melanoma), 0.0163.
In the case of `Cc1c2c(nn1C)CSCc1cc(n(C)n1)CSc1cc(c3ccccc3c1)OCCCc1c(C(=O)O)n(C)c3c-2c(Cl)ccc13` [AZD5991] + C[C@@H]1COCCN1C2=NC(=NC(=C2)C3(CC3)[S@](=N)(=O)C)C4=C5C=CNC5=NC=C4 [AZD6738] (first compound max 1 µM, 7x7, partner max 10 µM), the Bliss excess in assay [1] is 0.0666; in assay [2], -0.0501; in [3], -0.024; in the assay with ES6 (Ewing's Sarcoma), 0.0289; in the assay on KALS-1 (Glioblastoma), 0.0165; in [4] it was -0.0346. Further, the Bliss excess in assay [5] is 0.0328; in [6] it was 0.102; in assay [7], 0.0254; in assay [8], -0.0205; in assay [9], 0.0961; in assay [10], 0.0858. Moreover, the Bliss excess in [11] was 0.0942; in assay [12], 0.0623; in assay [13], 0.0151; in [14], 0.055; in [15], -0.0199; in [16] it was -0.0127. Besides, the Bliss excess in [17] was found to be 0.096; in the assay with UACC-257 (Melanoma), 0.0278.
As to `Cn1cnc2c(F)c(Nc3ccc(Br)cc3Cl)c(C(=O)NOCCO)cc21` [Selumetinib] + C=CCn1c(=O)c2cnc(Nc3ccc(N4CCN(C)CC4)cc3)nc2n1-c1cccc(C(C)(C)O)n1 [AZD1775] (first compound max 10 µM, partner max 1 µM), the Bliss excess in assay [1] was -0.0417; in [2], 0.021; in assay [3] it was -0.0858; in the assay with ES6 (Ewing's Sarcoma), -0.0564; in the assay on KALS-1 (Glioblastoma), -0.0755; in assay [4], -0.038. In addition, the Bliss excess in assay [5] is -0.0754; in assay [6] it was -0.0433; in [7], 0.0535; in [8], -0.0347; in assay [9], -0.021; in assay [10] it was -0.0834. Further, the Bliss excess in assay [11] was 0.0207; in assay [12], -0.0737; in [13] it was -0.0202; in assay [14], -0.041; in assay [15], -0.0667; in assay [16] it was -0.0495. For the same compound, the Bliss excess in assay [17] is -0.0146; with UACC-257 (Melanoma), 0.0014.
